This note sets out measurements from patent US11466016B2, “Pharmaceutical compounds” (priority 2018, dated 2022).

Where a name gives a salt, the structure may show the parent alone.

SHP2, sequence (Q06124 whole entry): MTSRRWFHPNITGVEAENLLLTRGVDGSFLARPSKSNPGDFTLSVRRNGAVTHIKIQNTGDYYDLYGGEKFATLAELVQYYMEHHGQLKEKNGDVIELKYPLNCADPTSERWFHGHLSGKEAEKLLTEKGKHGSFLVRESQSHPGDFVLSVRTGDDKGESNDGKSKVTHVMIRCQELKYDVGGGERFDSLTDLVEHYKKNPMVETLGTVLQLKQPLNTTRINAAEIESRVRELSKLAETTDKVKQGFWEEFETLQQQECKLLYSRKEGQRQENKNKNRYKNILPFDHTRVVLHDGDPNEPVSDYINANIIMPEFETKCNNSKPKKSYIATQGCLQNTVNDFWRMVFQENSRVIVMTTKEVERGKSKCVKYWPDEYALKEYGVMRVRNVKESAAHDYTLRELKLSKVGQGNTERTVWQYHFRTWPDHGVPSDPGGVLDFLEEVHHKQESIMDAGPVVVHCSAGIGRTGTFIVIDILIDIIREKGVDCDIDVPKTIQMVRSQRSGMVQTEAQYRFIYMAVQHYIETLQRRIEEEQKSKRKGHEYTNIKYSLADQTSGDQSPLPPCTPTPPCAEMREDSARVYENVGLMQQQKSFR

One test has as its target SHP2 (Homo sapiens (Human), UniProt Q06124). Put plainly: SHP2 Biochemical Assay (DiFMUP conversion, pIRS1 activating peptide).
Details: not given
The method, then:
SHP2 activity was monitored by measuring the conversion of the surrogate substrate 6,8-difluoromethylumbelliferyl phosphate (DiFMUP) to the fluorescent product, 6,8-difluoromethylumbelliferone (DiFMU).
SHP2 was pre-incubated with test compounds and the activating peptide pIRS1 (H2N-LN(pY)IDLDLV-(PEG)8-LST(pY)ASINFQK-amide) for 30 min, prior to addition of the […] (DiFMUP), (Thermo Fisher D6567). […] Rates of reaction were then measured over 30 min by monitoring fluorescence on a BMG Pherastar reader at excitation 360 nm/emission 450 nm. IC50 values were calculated from the normalized dose-response plots using four parameter logistic curve fit.
A word on the IC50: it is the concentration at which inhibition is half-maximal. For `Cn1cc2c(Cl)c(-c3n[nH]c4nc(N5[C@H]6CC[C@@H]5[C@@H](F)[C@@H](N)C6)c(CO)nc34)ccc2n1` (racemic) [Example 78, rac-{6-[(1R,2S,3S,5S)-3-amino-2-fluoro-8-azabicyclo[3.2.1]octan-8-yl]-3-(4-chloro-2-methyl-2H-indazol-5-yl)-1H-pyrazolo[3,4-b]pyrazin-5-yl}methanol], half-maximal inhibition (IC50) was put at 15 nM.

On to `Cn1nc2ccc(-c3n[nH]c4nc(N5[C@@H]6CC[C@H]5C[C@@H](O)C6)c(CO)nc34)c(Cl)c2c1Cl` [Example 115, endo-8-[3-(3,4-dichloro-2-methyl-2H-indazol-5-yl)-5-(hydroxymethyl)-1H-pyrazolo[3,4-b]pyrazin-6-yl]-8-azabicyclo[3.2.1]octan-3-ol], for which the “SHP2 (percent at stated concentration)” value came out at 50%@0.30 uM.

The same test, now with this note: DiFMUP substrate, 0.25 μM pIRS1 peptide, 30 min pre-incubation; average where more than one data point; read-out: SHP2 (IC50).
For the molecule `Cn1nc2ccc(-c3c[nH]c4nc(N5[C@@H]6CC[C@H]5C[C@@H](N)C6)cnc34)c(Cl)c2c1Cl` [Example 24, endo-8-[7-(3,4-dichloro-2-methyl-2H-indazol-5-yl)-5H-pyrrolo[2,3-b]pyrazin-3-yl]-8-azabicyclo[3.2.1]octan-3-amine, methanesulfonic acid salt], the IC50 turned out to be 4.3 nM. In the case of `Cc1nc2c(-c3ccc4nn(C)cc4c3Cl)n[nH]c2nc1N1CCC2(CC1)CNC2` [Example 94, 7-[3-(4-Chloro-2-methyl-2H-indazol-5-yl)-5-methyl-1H-pyrazolo[3,4-b]pyrazin-6-yl]-2,7-diazaspiro[3.5]nonane], the IC50 amounted to 70 nM. On the same count and under the same terms, the same measure for `Cn1cc2c(Cl)c(-c3c[nH]c4nc(N5CC[C@H](N)[C@@H](F)C5)cnc34)ccc2n1` [Example 30, (3S,4S)-1-[7-(4-chloro-2-methyl-2H-indazol-5-yl)-5H-pyrrolo[2,3-b]pyrazin-3-yl]-3-fluoropiperidin-4-amine, hydrochloride salt]: 150 nM; for `Cc1c(-c2n[nH]c3nc(N4[C@@H]5CC[C@H]4[C@@H](F)[C@@H](N)C5)c(CO)nc23)ccc2nn(C)c(Cl)c12` [Example 141, {6-[(1S,2S,3S,5R)-3-amino-2-fluoro-8-azabicyclo[3.2.1]octan-8-yl]-3-(3-chloro-2,4-dimethyl-2H-indazol-5-yl)-1H-pyrazolo[3,4-b]pyrazin-5-yl}methanol]: 13 nM. Still for that read-out and setting: as for `N[C@H]1C[C@@H]2CC[C@H]([C@H]1F)N2c1nc2[nH]nc(-c3ccc4ncc(N5CCOCC5)nc4c3Cl)c2nc1CO` [Example 147, {6-[(1R,2S,3S,5S)-3-amino-2-fluoro-8-azabicyclo[3.2.1]octan-8-yl]-3-[5-chloro-3-(morpholin-4-yl)quinoxalin-6-yl] 1H-pyrazolo[3,4-b]pyrazin-5-yl}methanol], the figure is 14 nM; as for `CN(C)c1cnc2ccc(-c3n[nH]c4nc(N5[C@@H]6CC[C@H]5C[C@@H](N)C6)c(CO)nc34)c(Cl)c2n1` [Example 133, {6-[endo-3-amino-8-azabicyclo[3.2.1]octan-8-yl]-3-[5-chloro-3-(dimethylamino)quinoxalin-6-yl]-1H-pyrazolo[3,4-b]pyrazin-5-yl}methanol], 6 nM; as for `CCn1nc2ccc(-c3n[nH]c4nc(N5[C@H]6CC[C@@H]5[C@@H](F)[C@@H](N)C6)c(CO)nc34)c(Cl)c2c1C#N` [Example 126, 5-{6-[(1R,2S,3S,5S)-3-amino-2-fluoro-8-azabicyclo[3.2.1]octan-8-yl]-5-(hydroxymethyl)-1H-pyrazolo[3,4-b]pyrazin-3-yl}-4-chloro-2-ethyl-2H-indazole-3-carbonitrile], 9.7 nM. Same read-out and setting: the same measure for `Cn1ccc2c(Cl)c(-c3c[nH]c4nc(N5CC[C@H](N)[C@H](F)C5)cnc34)ccc2c1=O` [Example 71, 6-{3-[(3R,4S)-4-amino-3-fluoropiperidin-1-yl]-5H-pyrrolo[2,3-b]pyrazin-7-yl}-5-chloro-2-methyl-1,2-dihydroisoquinolin-1-one, hydrochloride salt]: 55 nM; for `Cn1nc2ccc(-c3n[nH]c4nc(N5[C@H]6CC[C@@H]5[C@@H](F)[C@@H](N)C6)c(CO)nc34)c(F)c2c1Cl` [Example 83, {6-[(1R,2S,3S,5S)-3-amino-2-fluoro-8-azabicyclo[3.2.1]octan-8-yl]-3-(3-chloro-4-fluoro-2-methyl-2H-indazol-5-yl)-1H-pyrazolo[3,4-b]pyrazin-5-yl}methanol]: 8.6 nM. Regarding `COCc1nc2ccc(-c3c[nH]c4nc(N5[C@@H]6CC[C@H]5C[C@@H](N)C6)cnc34)c(Cl)c2s1` [Example 43, endo-8-{7-[7-chloro-2-(methoxymethyl)-1,3-benzothiazol-6-yl]-5H-pyrrolo[2,3-b]pyrazin-3-yl}-8-azabicyclo[3.2.1]octan-3-amine, hydrochloride salt], the concentration for half-maximal inhibition (IC50) worked out at 5.8 nM. On the same count and under the same terms, the same measure for `COc1cnc2ccc(-c3n[nH]c4nc(N5CCC(C)(N)CC5)c(C)nc34)c(Cl)c2n1` [Example 120, 1-[3-(5-chloro-3-methoxyquinoxalin-6-yl)-5-methyl-1H-pyrazolo[3,4-b]pyrazin-6-yl]-4-methylpiperidin-4-amine]: 25 nM. On to `Cn1cnc2ccc(-c3c[nH]c4nc(N5[C@@H]6CC[C@H]5C[C@@H](N)C6)cnc34)c(Cl)c2c1=O` [Example 56, 6-{3-[endo-3-amino-8-azabicyclo[3.2.1]octan-8-yl]-5H-pyrrolo[2,3-b]pyrazin-7-yl}-5-chloro-3-methyl-3,4-dihydroquinazolin-4-one, hydrochloride salt], for which the IC50 came to 21 nM.

Take `Cc1nc2c(-c3ccc4nn(C)cc4c3Cl)n[nH]c2nc1N1[C@H]2CC[C@@H]1[C@@H](F)[C@@H](N)C2` [Example 73, (1R,2S,3S,5S)-8-[3-(4-chloro-2-methyl-2H-indazol-5-yl)-5-methyl-1H-pyrazolo[3,4-b]pyrazin-6-yl]-2-fluoro-8-azabicyclo[3.2.1]octan-3-amine, hydrochloride salt]: the IC50 was found to be 9.8 nM. Regarding `Cn1cc2c(Cl)c(-c3c[nH]c4nc(N5[C@@H]6CC[C@H]5C[C@@H](N)C6)c(CO)nc34)ccc2n1` [Example 34, {3-[endo-3-amino-8-azabicyclo[3.2.1]octan-8-yl]-7-(4-chloro-2-methyl-2H-indazol-5-yl)-5H-pyrrolo[2,3-b]pyrazin-2-yl}methanol, hydrochloride salt], the half-inhibitory concentration (IC50) worked out at 13 nM. Still for that read-out and setting: as for `Cn1nc2ccc(-c3n[nH]c4nc(N5[C@H]6CC[C@@H]5[C@@H](F)[C@@H](N)C6)c(CO)nc34)c(Cl)c2c1Cl` [Example 80, {6-[(1R,2S,3S,5S)-3-amino-2-fluoro-8-azabicyclo[3.2.1]octan-8-yl]-3-(3,4-dichloro-2-methyl-2H-indazol-5-yl)-1H-pyrazolo[3,4-b]pyrazin-5-yl}methanol], the figure is 5.2 nM. Same read-out and setting: as for `CCn1cc2c(Cl)c(-c3c[nH]c4nc(N5[C@@H]6CC[C@H]5C[C@H](N)C6)cnc34)ccc2n1` [Example 28, exo-8-[7-(4-chloro-2-ethyl-2H-indazol-5-yl)-5H-pyrrolo[2,3-b]pyrazin-3-yl]-8-azabicyclo[3.2.1]octan-3-amine, hydrochloride salt], the figure is 9.6 nM. For `COc1cnc2ccc(-c3n[nH]c4nc(N5[C@H]6CC[C@@H]5[C@@H](F)[C@@H](N)C6)c(CO)nc34)c(Cl)c2n1` [Example 84, {6-[(1R,2S,3S,5S)-3-amino-2-fluoro-8-azabicyclo[3.2.1]octan-8-yl]-3-(5-chloro-3-methoxyquinoxalin-6-yl)-1H-pyrazolo[3,4-b]pyrazin-5-yl}methanol], the IC50 turned out to be 7.4 nM.
